Data published in PubChem BioAssay AID270 (DTP/NCI, 2004).
“And” between values parts separate entries of the source, which are not always exact repeats. Equal values may be shown once. Records with an inconclusive call do not appear.

Tested on: BDF1 mice, s.c. Lewis lung carcinoma, T/C %
Experiment: NCI In Vivo Anticancer Drug Screen. Data for tumor model Lewis Lung Carcinoma (subcutaneous) in B6D2F1 (BDF1) mice
Summary of the method: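 Readout: survival or tumor size, expressed as treated (T) over vehicle control (C). Transplantable tumor implanted in mice; compound given to the treated group.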

**Q.** For Cc1cc(C)c(NC(=O)N(CCCl)N=O)cc1C, which T/C (endpoint: mean tumor weight, dose: 25.0 mg/kg/injection, schedule: Q01DX001 (ip), vehicle: carboxymethylcellulose (CMC), higher = larger tumour) is on record?
**A.** 80 % of control

**Q.** And the T/C (endpoint: mean tumor weight, dose: 50.0 mg/kg/injection, schedule: Q01DX001 (ip), vehicle: carboxymethylcellulose (CMC), higher = larger tumour)?
**A.** 82 % of control

**Q.** What about the T/C (endpoint: median survival time, dose: 12.5 mg/kg/injection, schedule: Q01DX009 (ip), vehicle: other, higher = longer survival) of the same molecule?
**A.** 98 % of control

**Q.** And the T/C (endpoint: median survival time, dose: 25.0 mg/kg/injection, schedule: Q01DX009 (ip), vehicle: other, higher = longer survival)?
**A.** 98 % of control

**Q.** What about the T/C (endpoint: median survival time, dose: 50.0 mg/kg/injection, schedule: Q01DX009 (ip), vehicle: other, higher = longer survival) of the same molecule?
**A.** 87 % of control

**Q.** For CCC(c1ccc(OC(=O)Cc2ccc(N(CCCl)CCCl)cc2)cc1)C(CC)c1ccc(OC(=O)Cc2ccc(N(CCCl)CCCl)cc2)cc1 (configuration not stated), which T/C (endpoint: median survival time, dose: 6.25 mg/kg/injection, schedule: Q01DX009 (ip), vehicle: Klucel (hydroxypropylcellulose) (HPC), higher = longer survival) is on record?
**A.** 102 % of control

**Q.** What about the T/C (endpoint: median survival time, dose: 12.5 mg/kg/injection, schedule: Q01DX009 (ip), vehicle: Klucel (hydroxypropylcellulose) (HPC), higher = longer survival) of the same molecule?
**A.** 104 % of control

**Q.** And the T/C (endpoint: median survival time, dose: 25.0 mg/kg/injection, schedule: Q01DX009 (ip), vehicle: Klucel (hydroxypropylcellulose) (HPC), higher = longer survival)?
**A.** 104 % of control

**Q.** And the T/C (endpoint: median survival time, dose: 25.0 mg/kg/injection, schedule: Q02DX009 (ip), vehicle: saline with Tween-80, higher = longer survival)?
**A.** 86 % of control

**Q.** What about the T/C (endpoint: median survival time, dose: 50.0 mg/kg/injection, schedule: Q02DX009 (ip), vehicle: saline with Tween-80, higher = longer survival) of the same molecule?
**A.** 88 % of control

**Q.** What about the T/C (endpoint: median survival time, dose: 100.0 mg/kg/injection, schedule: Q02DX009 (ip), vehicle: saline with Tween-80, higher = longer survival) of the same molecule?
**A.** 94 % of control

**Q.** Which T/C (endpoint: median survival time, dose: 1.0 mg/kg/injection, schedule: Q01DX009 (ip), vehicle: saline, higher = longer survival) does the source give for COc1ccc(CC2C(=O)NC(C)C(=O)N(C)C3Cc4ccc(cc4)Oc4cc(ccc4O)CC(C(=O)NC(C)C(=O)NC(C)C(=O)N2C)N(C)C3=O)cc1 (configuration not stated) here?
**A.** 103 % of control

**Q.** And the T/C (endpoint: median survival time, dose: 2.0 mg/kg/injection, schedule: Q01DX009 (ip), vehicle: saline, higher = longer survival)?
**A.** 111 % of control

**Q.** For CC[C@H](CC[C@@H](C)[C@H]1CC[C@H]2[C@@H]3CC=C4C[C@@H](O)CC[C@]4(C)[C@H]3CC[C@]12C)C(C)C, which T/C (endpoint: mean tumor weight, dose: 15.0 mg/kg/injection, schedule: Q01DX011 (ip), vehicle: water, higher = larger tumour) is on record?
**A.** 72 % of control

**Q.** And the T/C (endpoint: mean tumor weight, dose: 25.0 mg/kg/injection, schedule: Q01DX011 (ip), vehicle: water, higher = larger tumour)?
**A.** 74 % of control

**Q.** What about the T/C (endpoint: mean tumor weight, dose: 40.0 mg/kg/injection, schedule: Q01DX011 (ip), vehicle: water, higher = larger tumour) of the same molecule?
**A.** 47 % of control

**Q.** What about the T/C (endpoint: mean tumor weight, dose: 100.0 mg/kg/injection, schedule: Q01DX011 (ip), vehicle: water, higher = larger tumour) of the same molecule?
**A.** 47 % of control

**Q.** What about the T/C (endpoint: mean tumor weight, dose: 150.0 mg/kg/injection, schedule: Q01DX011 (ip), vehicle: water, higher = larger tumour) of the same molecule?
**A.** 32 % of control

**Q.** And the T/C (endpoint: mean tumor weight, dose: 225.0 mg/kg/injection, schedule: Q01DX011 (ip), vehicle: water, higher = larger tumour)?
**A.** 11 % of control

**Q.** What does the source list for O=C1NC2(CCCCC2)C(=O)N1CCN(CCCl)CCCl?
**A.** T/C (endpoint: median survival time, dose: 1.5 mg/kg/injection, schedule: Q01DX009 (ip), vehicle: Klucel (hydroxypropylcellulose) (HPC), higher = longer survival): 98 % of control; T/C (endpoint: median survival time, dose: 1.5 mg/kg/injection, schedule: Q01DX009 (ip), vehicle: saline, higher = longer survival): 91 % of control; T/C (endpoint: median survival time, dose: 1.56 mg/kg/injection, schedule: Q01DX009 (ip), vehicle: saline, higher = longer survival): 87 % of control and 93 % of control; T/C (endpoint: median survival time, dose: 3.0 mg/kg/injection, schedule: Q01DX009 (ip), vehicle: Klucel (hydroxypropylcellulose) (HPC), higher = longer survival): 104 % of control; T/C (endpoint: median survival time, dose: 3.0 mg/kg/injection, schedule: Q01DX009 (ip), vehicle: saline, higher = longer survival): 89 % of control; T/C (endpoint: median survival time, dose: 3.12 mg/kg/injection, schedule: Q01DX009 (ip), vehicle: saline, higher = longer survival): 100 % of control; T/C (endpoint: median survival time, dose: 6.0 mg/kg/injection, schedule: Q01DX009 (ip), vehicle: saline, higher = longer survival): 106 % of control; T/C (endpoint: median survival time, dose: 6.25 mg/kg/injection, schedule: Q01DX009 (ip), vehicle: saline, higher = longer survival): 111 % of control; T/C (endpoint: median survival time, dose: 12.0 mg/kg/injection, schedule: Q01DX009 (ip), vehicle: saline, higher = longer survival): 89 % of control; T/C (endpoint: median survival time, dose: 12.5 mg/kg/injection, schedule: Q01DX009 (ip), vehicle: saline, higher = longer survival): 97 % of control

**Q.** Which T/C (endpoint: median survival time, dose: 3.12 mg/kg/injection, schedule: Q04DX003 (ip), vehicle: DMSO, higher = longer survival) does the source give for CC(C)C1(C(=O)NNC(=O)CCCc2ccc(N(CCCl)CCCl)cc2)OC2(O)CCCCCN2C1=O (configuration not stated) here?
**A.** 111 % of control

**Q.** And the T/C (endpoint: median survival time, dose: 6.25 mg/kg/injection, schedule: Q04DX003 (ip), vehicle: DMSO, higher = longer survival)?
**A.** 116 % of control

**Q.** What about the T/C (endpoint: median survival time, dose: 12.5 mg/kg/injection, schedule: Q04DX003 (ip), vehicle: DMSO, higher = longer survival) of the same molecule?
**A.** 102 % of control

**Q.** For O=[N+]([O-])c1cccc([N+](=O)[O-])c1Cl, which T/C (endpoint: mean tumor weight, dose: 37.0 mg/kg/injection, schedule: Q01DX011 (ip), vehicle: other, higher = larger tumour) is on record?
**A.** 116 % of control

**Q.** And the T/C (endpoint: mean tumor weight, dose: 55.0 mg/kg/injection, schedule: Q01DX011 (ip), vehicle: other, higher = larger tumour)?
**A.** 89 % of control

**Q.** With Nc1ncnc2c1ncn2C1CCCO1 (configuration not stated) as the molecule, how does the T/C (endpoint: mean tumor weight, dose: 50.0 mg/kg/injection, schedule: Q01DX011 (ip), vehicle: other, higher = larger tumour) read?
**A.** 75 % of control

**Q.** And the T/C (endpoint: mean tumor weight, dose: 100.0 mg/kg/injection, schedule: Q01DX011 (ip), vehicle: other, higher = larger tumour)?
**A.** 56 % of control

**Q.** What about the T/C (endpoint: mean tumor weight, dose: 200.0 mg/kg/injection, schedule: Q01DX011 (ip), vehicle: other, higher = larger tumour) of the same molecule?
**A.** 37 % of control
